The values below come from US20040105856A1 (priority 2002, published 2004).

Each structure is given as a SMILES string.

In experiment [1] the test system is croton oil induced topical inflammation in mice. Conditions: H4 ANTAG #1 10 mg/kg.
Experiment [2] deals with recombinant human histamine H4 receptor (Homo sapiens, UniProt Q9H3N8). Conditions: histamine 100 pM-100 uM, forskolin 3 uM.
recombinant human histamine H4 receptor, sequence (Q9H3N8 whole entry): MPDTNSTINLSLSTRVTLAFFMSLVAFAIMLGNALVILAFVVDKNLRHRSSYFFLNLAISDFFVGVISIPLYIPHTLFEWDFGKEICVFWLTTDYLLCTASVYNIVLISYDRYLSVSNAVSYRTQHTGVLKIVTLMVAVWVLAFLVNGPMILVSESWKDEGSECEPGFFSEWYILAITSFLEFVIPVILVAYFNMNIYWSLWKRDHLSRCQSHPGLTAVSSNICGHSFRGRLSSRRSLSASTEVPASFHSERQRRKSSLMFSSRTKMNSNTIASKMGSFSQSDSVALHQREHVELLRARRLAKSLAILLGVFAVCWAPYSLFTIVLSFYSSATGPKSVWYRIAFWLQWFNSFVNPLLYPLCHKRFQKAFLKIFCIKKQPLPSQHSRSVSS

Turning to `COc1ccc2c(c1)c(CC(=O)O)c(C)n2C(=O)c1ccc(Cl)cc1` [Indomethacin], the “Difference in ear thickness (×0.01 mm), Mean” value in experiment [1] (s.c. 30 min before and 2, 4 h after croton oil, Indomethacin 30 mg/kg, measured 6 h after croton oil) turned out to be 10.0 ×0.01 mm. Also, the “% inhib of ear swelling” value in experiment [1] (versus vehicle group, Indomethacin 30 mg/kg s.c.) is “(−40%)”.

As to `NCCc1c[nH]cn1` [Histamine], the “Activation of the receptor (decrease of cAMP content in response to forskolin)” value in experiment [2] is recorded as “specifically activated”.
